Source: patent publication US9642869B2, “Boronic acid derivatives and therapeutic uses thereof” (Rempex Pharmaceuticals, Inc., priority 2013, dated 2017)
Like-named read-outs stand apart in the source and are kept apart here.

What was measured:
KPC-2 KP1004 = test: Aztreonam potentiation (MPC@4); assay type: cell-based; conditions: minimum BLI concentration inhibiting growth with 4 μg/mL aztreonam
SHV-5 ec308 [1] = assay type: cell-based; conditions: minimum BLI concentration inhibiting growth with tigemonam at 4 μg/mL
CTX-M-14 KP1005 = assay type: cell-based
SHV-5 ec308 [2] = test: Aztreonam potentiation (MPC@4); assay type: cell-based; conditions: minimum BLI concentration inhibiting growth with 4 μg/mL aztreonam
ECL1002 [3] = test: Aztreonam potentiation (MPC@4); assay type: cell-based; conditions: minimum BLI concentration inhibiting growth with 4 μg/mL aztreonam
CTX-M-15 KP1009 = assay type: cell-based
ECL1002 [4] = assay type: cell-based; conditions: minimum BLI concentration inhibiting growth with tigemonam at 4 μg/mL
SHV-12 = SHV-12 (Klebsiella pneumoniae, UniProt P0AD64, E235K/G234S/L31Q); test: Inhibition of nitrocefin cleavage by purified enzyme (Ki); assay type: biochemical; conditions: nitrocefin reporter substrate, 10 min preincubation; read-out: Ki (SHV-12, NCF)
Chain of SHV-12 (P0AD64 22-286 L31Q/G234S/E235K): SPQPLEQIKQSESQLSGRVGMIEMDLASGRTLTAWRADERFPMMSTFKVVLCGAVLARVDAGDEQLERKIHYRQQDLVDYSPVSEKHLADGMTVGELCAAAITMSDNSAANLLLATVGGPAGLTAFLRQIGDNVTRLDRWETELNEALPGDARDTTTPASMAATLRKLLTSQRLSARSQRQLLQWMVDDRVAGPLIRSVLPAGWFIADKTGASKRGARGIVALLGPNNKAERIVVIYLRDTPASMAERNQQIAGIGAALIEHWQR
Experimental: Purified enzymes were mixed with various concentrations of inhibitors in reaction buffer and incubated for 10 min at room temperature. Nitrocefin was added and substrate cleavage profiles were recorded at 490 nm every 10 sec for 10 min.

OXA-48 KP1086 = test: Biapenem potentiation (MPC@1); assay type: cell-based; conditions: minimum BLI concentration inhibiting growth with 1 μg/mL biapenem
Experimental: (§1) Biapenem was present in the test medium at 1 μg/mL. […] Table 3 summarizes the BLI potency of biapenem potentiation (MPC@1) for two strains overexpressing class A (KPC) and class D (OXA-48) carbapenemases. Biapenem MIC for each strain is also shown.

KP1004 KPC-2 = test: Biapenem potentiation (MPC@1); assay type: cell-based; conditions: minimum BLI concentration inhibiting growth with 1 μg/mL biapenem
Experimental: as §1

[5] = minimum BLI concentration inhibiting growth with tigemonam at 4 μg/mL

| Structure (SMILES) | AZT MPC4 KPC-2 KP1004 (KPC-2 KP1004) | TIG MPC4 SHV-5 ec308 (SHV-5 ec308 [1]) | TIG MPC4 CTX-M-14 KP1005 (CTX-M-14 KP1005) | AZT MPC4 SHV-5 ec308 (SHV-5 ec308 [2]) | AZT MPC4 ECL1002 (ECL1002 [3]) | TIG MPC4 CTX-M-15 KP1009 (CTX-M-15 KP1009) | TIG MPC4 ECL1002 (ECL1002 [4]) | Ki (SHV-12) [nM] | BPM MPC1 OXA-48 KP1086 (OXA-48 KP1086) | BPM MPC1 KP1004 KPC-2 (KP1004 KPC-2) | TIG MPC4 CTX-M-14 KP1005 (CTX-M-14 KP1005; [5]) | TIG MPC4 CTX-M-15 KP1009 (CTX-M-15 KP1009; [5]) |
| --- | --- | --- | --- | --- | --- | --- | --- | --- | --- | --- | --- | --- |
| O=C(COCc1ccccc1)N[C@H]1Cc2cccc(C(=O)O)c2OB1O [CPD B, reference compound] | Z (MIC of greater than 10 μg/mL) | Y (MIC of 1 μg/mL to 10 μg/mL) | Z (key: X: MIC of less than 1 μg/mL; Y: MIC of 1 μg/mL to 10 μg/mL; Z: MIC of greater than 10 μg/mL) | Y (MIC of 1 μg/mL to 10 μg/mL) | Z (MIC of greater than 10 μg/mL) | Z (key: X: MIC of less than 1 μg/mL; Y: MIC of 1 μg/mL to 10 μg/mL; Z: MIC of greater than 10 μg/mL) | Y (MIC of 1 μg/mL to 10 μg/mL) | < 1 | Z (MIC of greater than 10 μg/mL) | X (MIC of less than 1 μg/mL) | – | – |
| O=C(CSC(F)(F)F)N[C@H]1Cc2cccc(C(=O)O)c2OB1O [Compound 1, (R)-2-hydroxy-3-(2-(trifluoromethylthio)acetamido)-3,4-dihydro-2H-benzo[e][1,2]oxaborinine-8-carboxylic acid] | Y (MIC of 1 μg/mL to 10 μg/mL) | X (MIC of less than 1 μg/mL) | – | X (MIC of less than 1 μg/mL) | Y (MIC of 1 μg/mL to 10 μg/mL) | – | X (MIC of less than 1 μg/mL) | < 1 | Y (MIC of 1 μg/mL to 10 μg/mL) | X (MIC of less than 1 μg/mL) | Y (MIC of 1 μg/mL to 10 μg/mL) | Y (MIC of 1 μg/mL to 10 μg/mL) |
| Cn1nnnc1SCC(=O)N[C@H]1Cc2cccc(C(=O)O)c2OB1O [Compound 2, (R)-2-hydroxy-3-(2-(1-methyl-1H-tetrazol-5-ylthio)acetamido)-3,4-dihydro-2H-benzo[e][1,2]oxaborinine-8-carboxylic acid] | Y (MIC of 1 μg/mL to 10 μg/mL) | X (MIC of less than 1 μg/mL) | X (key: X: MIC of less than 1 μg/mL; Y: MIC of 1 μg/mL to 10 μg/mL; Z: MIC of greater than 10 μg/mL) | X (MIC of less than 1 μg/mL) | Y (MIC of 1 μg/mL to 10 μg/mL) | Y (key: X: MIC of less than 1 μg/mL; Y: MIC of 1 μg/mL to 10 μg/mL; Z: MIC of greater than 10 μg/mL) | X (MIC of less than 1 μg/mL) | < 1 | Y (MIC of 1 μg/mL to 10 μg/mL) | X (MIC of less than 1 μg/mL) | – | – |
| NC(=O)N[C@H]1Cc2cccc(C(=O)O)c2OB1O [Compound 6, (R)-2-hydroxy-3-ureido-3,4-dihydro-2H-benzo[e][1,2]oxaborinine-8-carboxylic acid] | X (MIC of less than 1 μg/mL) | Z (MIC of greater than 10 μg/mL) | Z (key: X: MIC of less than 1 μg/mL; Y: MIC of 1 μg/mL to 10 μg/mL; Z: MIC of greater than 10 μg/mL) | Y (MIC of 1 μg/mL to 10 μg/mL) | Z (MIC of greater than 10 μg/mL) | Y (key: X: MIC of less than 1 μg/mL; Y: MIC of 1 μg/mL to 10 μg/mL; Z: MIC of greater than 10 μg/mL) | Y (MIC of 1 μg/mL to 10 μg/mL) | 1 to 10 | Y (MIC of 1 μg/mL to 10 μg/mL) | X (MIC of less than 1 μg/mL) | – | – |
| CN(C)C(=O)C(=O)N[C@H]1Cc2cccc(C(=O)O)c2OB1O [Compound 9, (R)-3-(2-(dimethylamino)-2-oxoacetamido)-2-hydroxy-3,4-dihydro-2H-benzo[e][1,2]oxaborinine-8-carboxylic acid] | Y (MIC of 1 μg/mL to 10 μg/mL) | Y (MIC of 1 μg/mL to 10 μg/mL) | Y (key: X: MIC of less than 1 μg/mL; Y: MIC of 1 μg/mL to 10 μg/mL; Z: MIC of greater than 10 μg/mL) | X (MIC of less than 1 μg/mL) | Y (MIC of 1 μg/mL to 10 μg/mL) | Y (key: X: MIC of less than 1 μg/mL; Y: MIC of 1 μg/mL to 10 μg/mL; Z: MIC of greater than 10 μg/mL) | Y (MIC of 1 μg/mL to 10 μg/mL) | – | Z (MIC of greater than 10 μg/mL) | X (MIC of less than 1 μg/mL) | – | – |
